Assay results from paper PMC4750079, “Tackling amyloidogenesis in Alzheimer’s disease with A2V variants of Amyloid-β” (Scientific Reports, 2016).
Where a SMILES comes first, the peptide text is derived from it. [ ]: non-standard residue; d: D form.

Assays:
[1] = test system: SH-SY5Y cells; test: Toxicity of peptides on differentiated SH-SY5Y cells (MTT test); type: cell-based, human; settings: 24 h; for toxicity for living cells: up to 20 μM, mean of three independent assays
Method: Figure 2 Analysis of the effects of Aβ1-6WT(D), Aβ1-6A2V(D) and Aβ1-6A2VTAT(D) on neurotoxicity in cell models. SH-SY5Y cells were differentiated with 10 μM retinoic acid. […] Comparison of cell viability was performed by Student t-test.
Toxicity studies with Aβ1-6WT(D), Aβ1-6A2V(D) or Aβ1-6A2VTAT(D) and the short peptides’ ability to inhibit the toxicity induced by Aβ1-42WT in SH-SY5Y cell cultures were analyzed following previously described protocols. Each experiment was performed in triplicate; the data provided were obtained as the mean of three independent assays.

[2] = Crossing of blood brain barrier and cell membranes (data not shown); settings: peptide alone
[3] = test system: amyloid plaques; test: Binding of biotinylated peptides to amyloid in CRND8 mouse brain sections; settings: for staining of amyloid plaques in transgenic mouse brain: CRND8 transgenic brain sections, avidin-biotin complex / DAB
Method: It was tested on brain sections of transgenic and control mice of CRND8 strain[44]. To unequivocally identify the fragment(s) of the peptide responsible for binding to plaques we used three separate segments: Biot-Aβ1-6WT(D), Biot-Aβ1-6A2V(D) and Biot-TAT(D). Seven-micrometre thick brain sections fixed in Carnoy and embedded in paraffin were used for staining.

[4] = molecular target: T1, Aβ1-42WT (Homo sapiens, UniProt P05067); test: Atomic force microscopy of Aβ1-42WT oligomerization; type: biochemical; settings: Aβ1-42WT alone, 100 μM, phosphate buffer 50 mM pH 7.4, 4 °C, 24 h, AFM
T1 construct: Aβ1-42WT oligomers were formed following incubation of Aβ1-42WT at a final concentration of 100 μM; made in house; host or cells: chemical synthesis (solid-phase Fmoc), no expression host
Method: In polarized-light and EM studies, both peptides were used at 0.125 mM, molar ratio = 1:1 or 1:4 respectively, with 20 days incubation. […] E,F: Representative Tapping mode of AFM images as determined by amplitude error data of Aβ1-42WT oligomers. Aβ1-42WT peptide 100 μM in phosphate buffer 50 mM, pH 7.4 was incubated at 4 °C for 24 h alone (E) (Z range: -10/ + 10 mV) or in presence of Aβ1-6A2VTAT(D) (F) (Z range: -10/ + 25 mV). The molar ratio of Aβ1-42WT to Aβ1-6A2VTAT(D) was 1:4. Scale bar: 1 μm, inset: 200 nm. (G,H): height plot profiles obtained along different lines traced on the topographic AFM images.
Aβ1-42WT oligomers were formed following incubation of Aβ1-42WT at a final concentration of 100 μM in phosphate buffer 50 mM, pH 7.4 at 4 °C for 24 h, alone or in presence of Aβ1-6A2VTAT(D), at 1:4 molar ratio. Sample solutions were diluted to a final concentration of 10 μM of Aβ1-42WT with phosphate buffer and 50 μl of each solution was immediately added onto freshly cleaved mica at room temperature for 2 minutes. Samples were washed and dried under gentle nitrogen flow. AFM analyses were carried out on a Multimode AFM with a Nanoscope V system (Veeco/Digital Instruments). AFM images were analysed using the Scanning Probe Image Processor data analysis package. All the topographic patterns and SPIP characterization were verified via additional measurements on a minimum of five different, well separated areas.

[5] = test system: APP; settings: enhanced β-secretase cleavage of APP, increased C99; cited from earlier work
Source text: This is consistent with our findings, indicating a shift in APP processing towards the amyloidogenic processing i ...

T1 sequence (P05067 672-713 limits assumed): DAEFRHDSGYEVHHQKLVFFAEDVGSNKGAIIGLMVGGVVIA

## CC(C)[C@@H](NC(=O)[C@H](N)CC(=O)O)C(=O)N[C@H](CCC(=O)O)C(=O)N[C@H](Cc1ccccc1)C(=O)N[C@H](CCCNC(=N)N)C(=O)N[C@H](Cc1c[nH]cn1)C(=O)O [Aβ1-6A2V(D)] (H-[dD][dV][dE][dF][dR][dH]-OH)
[1]
  toxicity for living cells: neither is toxic for living cells even at high concentrations
[2]
  crossing of blood brain barrier and cell membranes: does not efficiently cross either the blood brain barrier (BBB) or cell membranes

## C[C@@H](NC(=O)[C@H](N)CC(=O)O)C(=O)N[C@H](CCC(=O)O)C(=O)N[C@H](Cc1ccccc1)C(=O)N[C@H](CCCNC(=N)N)C(=O)N[C@H](Cc1c[nH]cn1)C(=O)O [Aβ1-6WT(D)] (H-[dD][dA][dE][dF][dR][dH]-OH)
[1]
  toxicity for living cells: neither is toxic for living cells even at high concentrations

## Gly-Arg-Lys-Lys-Arg-Arg-Gln-Arg-Arg-Arg [Biot-TAT(D), biotinylated form of TAT(D), reference compound]
[3]
  staining of amyloid plaques in transgenic mouse brain: strongly stained amyloid deposits

## H-Asp-ALA/VAL-Glu-Phe-Arg-His-Asp-Ser-Gly-Tyr-Glu-Val-His-His-Gln-Lys-Val-Phe-Phe-Ala-Glu-Asp-Val-Gly-Ala-Ile-Ile-Gly-Leu-Met-Val-Gly-Gly-Val-Val—OH [Aβ1-42WT, synthetic wild-type full-length Amyloid-β 1-42, reference compound]
[1]
  reduction of cell viability: 35%
[4]
  diameter of small oligomers (~70%): 6-20 nm

## H-Asp-ALA/VAL-Glu-Phe-Arg-His-Gly-Gly-Gly-Gly-Gly-Arg-Lys-Lys-Arg-Arg-Gln-Arg-Arg-Arg [Biot-Aβ1-6WTTAT(D), Aβ1-6WTTAT(D) containing a biotinylated residue at the C-terminus]
[3]
  staining of amyloid plaques in transgenic mouse brain: able to bind and therefore stain the plaques
[3]; control animals devoid of amyloid plaques, data not shown
  staining in brain slices of non-transgenic control mice: unable to produce any staining

## H-Asp-ALA/VAL-Glu-Phe-Arg-His-OH [Biot-Aβ1-6A2V(D), Aβ1-6A2V(D) containing a biotinylated residue at the C-terminus]
[3]
  staining of amyloid plaques in transgenic mouse brain: no immunostaining of amyloid was detected

B1: TAT: HIV-1 Tat of the cited studies (protein, UniProt P04608 1-86, looked up)
Protein Tat: MEPVDPRLEPWKHPGSQPKTACTNCYCKKCCFHCQVCFITKALGISYGRKKRRQRRRAHQNSQTHQASLSKQPTSQPRGDPTGPKE
[5]
  fold higher levels of Aβ42: 5.5 fold
